Measured values reported in patent US20260022142A1, “MACROCYCLIC IMMUNOMODULATORS” (Bristol-Myers Squibb Company, priority 2022, published 2026).
Bridge positions count the residues as written; N and C are the ends. Square brackets hold non-standard residues; d marks the D form. Peptide text beside a SMILES is read from it. * marks the point of attachment. ξ: configuration not given here. ξPhe(4-guanidino) = N=C(N)Nc1ccc(CC(N)C(=O)O)cc1; Phe(3-CONH2) = NC(=O)c1cccc(C[C@H](N)C(=O)O)c1; Bip = N[C@@H](Cc1ccc(-c2ccccc2)cc1)C(=O)O; Phe(3-Me) = Cc1cccc(C[C@H](N)C(=O)O)c1; NH(CH2)12COOH = O=C(O)CCCCCCCCCCCCN*; Cha = N[C@@H](CC1CCCCC1)C(=O)O; Cit = NC(=O)NCCC[C@H](N)C(=O)O; Ile(3ξ) = CCC(C)[C@H](N)C(=O)O; Thr(3ξ) = CC(O)[C@H](N)C(=O)O; 12Ado = NCCCCCCCCCCCC(=O)O; Carboxymethyl = O=C(O)C*; Orn = NCCC[C@H](N)C(=O)O; Aun = NCCCCCCCCCCC(=O)O; Dab = NCC[C@H](N)C(=O)O; Dap = NC[C@H](N)C(=O)O; AEEA = NCCOCCOCC(=O)O

Molecular target: T1, PD-1/PD-L1 interaction (PE-labeled human PD-L1-Ig binding to Jurkat cell line over-expressing human PD-1) (Homo sapiens, UniProt Q15116)
T1 construct: expressed in transfected cells; host or cells: Jurkat
Assay: Jurkat-PD-1 Cell Binding High-Content Screening Assay (CBA)
Type: cell-based
Settings: Jurkat cell line over-expressing human PD-1; PE-labeled PD-L1-Ig 20 nM final; read-out: Jurkat hPD1-PDL1 IC50
Outline: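 Human PD-L1-Ig carrying a covalent PE label on its Ig tag serves as the probe, applied at 20 nM final to compound-treated (2 h, 37° C) Jurkat-hPD-1 cells in medium with 10% fetal calf serum. After one hour, fixation and nuclear staining precede high-content image analysis.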

T1 sequence (Q15116 25-288): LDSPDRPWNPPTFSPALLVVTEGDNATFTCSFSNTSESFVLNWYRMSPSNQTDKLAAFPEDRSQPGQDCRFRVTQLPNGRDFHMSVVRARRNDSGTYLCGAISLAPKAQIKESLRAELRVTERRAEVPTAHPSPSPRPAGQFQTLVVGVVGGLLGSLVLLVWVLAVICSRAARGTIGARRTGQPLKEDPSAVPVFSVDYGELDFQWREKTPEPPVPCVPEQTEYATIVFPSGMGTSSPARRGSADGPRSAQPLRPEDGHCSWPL

SMILES	IC50 [nM]
CCC(C)[C@@H]1NC(=O)[C@H](CC2CCCCC2)NC(=O)[C@H](CCN)NC(=O)[C@@H](CC(C)C)NC(=O)[C@H](CCCN)NC(=O)[C@H](C(C)CC)NC(=O)[C@H](Cc2ccc(-c3ccccc3)cc2)NC(=O)[C@H](CC(C)C)NC(=O)[C@H](Cc2c[nH]c3ccccc23)NC(=O)[C@H](CC(=O)O)NC(=O)[C@H](Cc2ccc(OCC(=O)O)cc2)NC(=O)[C@H](Cc2cccc(C(N)=O)c2)NC(=O)CSC[C@@H](C(=O)N[C@@H](CC(N)=O)C(=O)NCCOCCOCC(=O)NCCCCCCCCCCC(=O)O)NC(=O)[C@H](CO)NC1=O (stereo partly drawn) [Compound 3116] ({CH2CO}-[Phe(3-CONH2)]Y(Carboxymethyl)DWL[Bip][Ile(3ξ)][Orn][dL][Dab][Cha][Ile(3ξ)]SCN[AEEA][Aun]-OH; thioether N-14)	43.4
CCC(C)[C@@H]1NC(=O)[C@H](CC2CCCCC2)NC(=O)[C@H](CCN)NC(=O)[C@@H](CC(C)C)NC(=O)[C@H](CCCN)NC(=O)[C@H](C(C)CC)NC(=O)[C@H](Cc2ccc(-c3ccccc3)cc2)NC(=O)[C@H](CC(C)C)NC(=O)[C@H](Cc2c[nH]c3ccccc23)NC(=O)[C@H](CC(=O)O)NC(=O)[C@H](Cc2ccc(OCC(=O)O)cc2)NC(=O)C(Cc2ccc(N=C(N)N)cc2)NC(=O)CSC[C@@H](C(=O)N[C@@H](CC(N)=O)C(=O)NCCOCCOCC(=O)NCCCCCCCCCCC(=O)O)NC(=O)[C@H](CO)NC1=O (stereo partly drawn) [Compound 3117] ({CH2CO}-[ξPhe(4-guanidino)]Y(Carboxymethyl)DWL[Bip][Ile(3ξ)][Orn][dL][Dab][Cha][Ile(3ξ)]SCN[AEEA][Aun]-OH; thioether N-14)	160
CCC(C)[C@@H]1NC(=O)[C@H](CC2CCCCC2)NC(=O)[C@H](CCN)NC(=O)[C@@H](CC(C)C)NC(=O)[C@H](CCCN)NC(=O)[C@H](C(C)CC)NC(=O)[C@H](Cc2ccc(-c3ccccc3)cc2)NC(=O)[C@H](C(C)CC)NC(=O)[C@H](Cc2c[nH]c3ccccc23)NC(=O)[C@H](CC(=O)O)NC(=O)[C@H](Cc2ccc(OCC(=O)O)cc2)NC(=O)[C@H](C(C)O)NC(=O)CSC[C@@H](C(=O)N[C@H](CC(N)=O)C(=O)NCCOCCOCC(=O)N2CCC[C@@H]2C(=O)NCCCCCCCCCCC(=O)O)NC(=O)[C@H](CO)NC1=O (stereo partly drawn) [Compound 3118] ({CH2CO}-[Thr(3ξ)]Y(Carboxymethyl)DW[Ile(3ξ)][Bip][Ile(3ξ)][Orn][dL][Dab][Cha][Ile(3ξ)]SC[dN][AEEA][dP][Aun]-OH; thioether N-14)	30.4
CCC(C)[C@@H]1NC(=O)[C@H](CC2CCCCC2)NC(=O)[C@H](CCN)NC(=O)[C@@H](CC(C)C)NC(=O)[C@H](CCCN)NC(=O)[C@H](C(C)CC)NC(=O)[C@H](Cc2ccc(-c3ccccc3)cc2)NC(=O)[C@H](C(C)CC)NC(=O)[C@H](Cc2c[nH]c3ccccc23)NC(=O)[C@H](CC(=O)O)NC(=O)[C@H](Cc2ccc(OCC(=O)O)cc2)NC(=O)[C@H](C(C)O)NC(=O)CSC[C@@H](C(=O)N[C@H](CC(N)=O)C(=O)NCCOCCOCC(=O)N[C@@H](Cc2c[nH]cn2)C(=O)NCCCCCCCCCCC(=O)O)NC(=O)[C@H](CO)NC1=O (stereo partly drawn) [Compound 3119] ({CH2CO}-[Thr(3ξ)]Y(Carboxymethyl)DW[Ile(3ξ)][Bip][Ile(3ξ)][Orn][dL][Dab][Cha][Ile(3ξ)]SC[dN][AEEA]H[Aun]-OH; thioether N-14)	24.6
CCC(C)[C@@H]1NC(=O)[C@H](CC2CCCCC2)NC(=O)[C@H](CCN)NC(=O)[C@@H](CC(C)C)NC(=O)[C@H](CCCN)NC(=O)[C@H](C(C)CC)NC(=O)[C@H](Cc2ccc(-c3ccccc3)cc2)NC(=O)[C@H](C(C)CC)NC(=O)[C@H](Cc2c[nH]c3ccccc23)NC(=O)[C@H](CC(=O)O)NC(=O)[C@H](Cc2ccc(OCC(=O)O)cc2)NC(=O)[C@H](C(C)O)NC(=O)CSC[C@@H](C(=O)N[C@H](CC(N)=O)C(=O)NCCOCCOCC(=O)N[C@@H](CCCN)C(=O)NCCCCCCCCCCC(=O)O)NC(=O)[C@H](CO)NC1=O (stereo partly drawn) [Compound 3120] ({CH2CO}-[Thr(3ξ)]Y(Carboxymethyl)DW[Ile(3ξ)][Bip][Ile(3ξ)][Orn][dL][Dab][Cha][Ile(3ξ)]SC[dN][AEEA][Orn][Aun]-OH; thioether N-14)	24.8
CCC(C)[C@@H]1NC(=O)[C@H](CC2CCCCC2)NC(=O)[C@H](CCN)NC(=O)[C@@H](CC(C)C)NC(=O)[C@H](CCCN)NC(=O)[C@H](C(C)CC)NC(=O)[C@H](Cc2ccc(-c3ccccc3)cc2)NC(=O)[C@H](C(C)CC)NC(=O)[C@H](Cc2c[nH]c3ccccc23)NC(=O)[C@H](CC(=O)O)NC(=O)[C@H](Cc2ccc(OCC(=O)O)cc2)NC(=O)[C@H](C(C)O)NC(=O)CSC[C@@H](C(=O)N[C@@H](CN)C(=O)NCCOCCOCC(=O)N[C@@H](CCCN)C(=O)NCCCCCCCCCCC(=O)O)NC(=O)[C@H](CO)NC1=O (stereo partly drawn) [Compound 3121] ({CH2CO}-[Thr(3ξ)]Y(Carboxymethyl)DW[Ile(3ξ)][Bip][Ile(3ξ)][Orn][dL][Dab][Cha][Ile(3ξ)]SC[Dap][AEEA][Orn][Aun]-OH; thioether N-14)	10.4

Next, values leading:

IC50 [nM]	SMILES
50.1	CCC(C)[C@@H]1NC(=O)[C@H](Cc2ccc(-c3ccccc3)cc2)NC(=O)[C@H](C(C)C)NC(=O)[C@H](Cc2cccc(C)c2)NC(=O)[C@H](CC(=O)O)NC(=O)[C@H](Cc2ccc(OCC(=O)O)cc2)NC(=O)[C@H](C(C)O)NC(=O)CSC[C@@H](C(=O)N[C@@H](CCN)C(=O)NCCCCCCCCCCCCC(=O)O)NC(=O)[C@H](CO)NC(=O)[C@H](C(C)C)NC(=O)[C@H](CC2CCCCC2)NC(=O)[C@H](CCN)NC(=O)[C@@H](CC(C)C)NC(=O)[C@H](CCCN)NC1=O (stereo partly drawn) [Compound 3093] ({CH2CO}-[Thr(3ξ)]Y(Carboxymethyl)D[Phe(3-Me)]V[Bip][Ile(3ξ)][Orn][dL][Dab][Cha]VSC[Dab]-{NH(CH2)12COOH}; thioether N-14)
10.1	CCC(C)[C@@H]1NC(=O)[C@H](Cc2ccc(-c3ccccc3)cc2)NC(=O)[C@H](C(C)C)NC(=O)[C@H](Cc2cccc(C)c2)NC(=O)[C@H](CC(=O)O)NC(=O)[C@H](Cc2ccc(OCC(=O)O)cc2)NC(=O)[C@H](C(C)O)NC(=O)CSC[C@@H](C(=O)NCCOCCOCC(=O)N[C@@H](CCCCN)C(=O)NCCCCCCCCCCCC(=O)O)NC(=O)[C@H](C(C)O)NC(=O)[C@H](C(C)C)NC(=O)[C@H](CC2CCCCC2)NC(=O)[C@H](CCN)NC(=O)[C@@H](CC(C)C)NC(=O)[C@H](CCCN)NC1=O (stereo partly drawn) [Compound 3095] ({CH2CO}-[Thr(3ξ)]Y(Carboxymethyl)D[Phe(3-Me)]V[Bip][Ile(3ξ)][Orn][dL][Dab][Cha]V[Thr(3ξ)]C[AEEA]K[12Ado]-OH; thioether N-14)
12.1	CCC(C)[C@@H]1NC(=O)[C@H](Cc2ccc(-c3ccccc3)cc2)NC(=O)[C@H](C(C)C)NC(=O)[C@H](Cc2c[nH]c3ccccc23)NC(=O)[C@H](CC(=O)O)NC(=O)[C@H](Cc2ccc(OCC(=O)O)cc2)NC(=O)[C@H](CCN)NC(=O)CSC[C@@H](C(=O)NCCOCCOCC(=O)N[C@@H](CCCCN)C(=O)NCCCCCCCCCCCC(=O)O)NC(=O)[C@H](C(C)O)NC(=O)[C@H](C(C)C)NC(=O)[C@H](CC2CCCCC2)NC(=O)[C@H](CCN)NC(=O)[C@@H](CC(C)C)NC(=O)[C@H](CCCN)NC1=O (stereo partly drawn) [Compound 3096] ({CH2CO}-[Dab]Y(Carboxymethyl)DWV[Bip][Ile(3ξ)][Orn][dL][Dab][Cha]V[Thr(3ξ)]C[AEEA]K[12Ado]-OH; thioether N-14)
22.8	CCC(C)[C@@H]1NC(=O)[C@H](Cc2ccc(-c3ccccc3)cc2)NC(=O)[C@H](C(C)C)NC(=O)[C@H](Cc2c[nH]c3ccccc23)NC(=O)[C@H](CC(=O)O)NC(=O)[C@H](Cc2ccc(OCC(=O)O)cc2)NC(=O)[C@H](C(C)O)NC(=O)CSC[C@@H](C(=O)N[C@@H](CCCN)C(=O)NCCCCCCCCCCCC(=O)O)NC(=O)[C@H](C(C)O)NC(=O)[C@H](C(C)C)NC(=O)[C@H](CC2CCCCC2)NC(=O)[C@H](CCN)NC(=O)[C@@H](CC(C)C)NC(=O)[C@H](CCCN)NC1=O (stereo partly drawn) [Compound 3097] ({CH2CO}-[Thr(3ξ)]Y(Carboxymethyl)DWV[Bip][Ile(3ξ)][Orn][dL][Dab][Cha]V[Thr(3ξ)]C[Orn][12Ado]-OH; thioether N-14)
25.6	CCC(C)[C@@H]1NC(=O)[C@H](Cc2ccc(-c3ccccc3)cc2)NC(=O)[C@H](C(C)C)NC(=O)[C@H](Cc2cccc(C)c2)NC(=O)[C@H](CC(=O)O)NC(=O)[C@H](Cc2ccc(OCC(=O)O)cc2)NC(=O)[C@H](C(C)O)NC(=O)CSC[C@@H](C(=O)N[C@@H](CCCN)C(=O)NCCCCCCCCCCCC(=O)O)NC(=O)[C@H](C(C)O)NC(=O)[C@H](C(C)C)NC(=O)[C@H](CC2CCCCC2)NC(=O)[C@H](CCN)NC(=O)[C@@H](CC(C)C)NC(=O)[C@H](CCCN)NC1=O (stereo partly shown) [Compound 3098]
19.1	CCC(C)[C@@H]1NC(=O)[C@H](Cc2ccc(-c3ccccc3)cc2)NC(=O)[C@H](C(C)C)NC(=O)[C@H](Cc2c[nH]c3ccccc23)NC(=O)[C@H](CC(=O)O)NC(=O)[C@H](Cc2ccc(OCC(=O)O)cc2)NC(=O)[C@H](CO)NC(=O)CSC[C@@H](C(=O)N[C@@H](CCCN)C(=O)NCCCCCCCCCCC(=O)O)NC(=O)[C@H](C(C)O)NC(=O)[C@H](C(C)C)NC(=O)[C@H](CC2CCCCC2)NC(=O)[C@H](CCN)NC(=O)[C@@H](CC(C)C)NC(=O)[C@H](CCCN)NC1=O (stereo partly drawn) [Compound 3099] ({CH2CO}-SY(Carboxymethyl)DWV[Bip][Ile(3ξ)][Orn][dL][Dab][Cha]V[Thr(3ξ)]C[Orn][Aun]-OH; thioether N-14)
19.3	Cc1cccc(C[C@@H]2NC(=O)[C@H](CC(=O)O)NC(=O)[C@H](Cc3ccc(OCC(=O)O)cc3)NC(=O)[C@H](CN)NC(=O)CSC[C@@H](C(=O)N[C@@H](CCCN)C(=O)NCCCCCCCCCCCC(=O)O)NC(=O)[C@H](C(C)O)NC(=O)[C@H](C(C)C)NC(=O)[C@H](CC3CCCCC3)NC(=O)[C@H](CCN)NC(=O)[C@@H](CC(C)C)NC(=O)[C@H](CCCN)NC(=O)[C@H](CCCNC(N)=O)NC(=O)[C@H](Cc3ccc(-c4ccccc4)cc3)NC(=O)[C@H](C(C)C)NC2=O)c1 (stereo partly drawn) [Compound 3122] ({CH2CO}-[Dap]Y(Carboxymethyl)D[Phe(3-Me)]V[Bip][Cit][Orn][dL][Dab][Cha]V[Thr(3ξ)]C[Orn][12Ado]-OH; thioether N-14)
